# Values joined by “and” are separate entries in the source; they are usually repeats but may differ in a detail not shown here. Equal entries are not always repeated. Toxic doses and inconclusive results are not listed. Where a SMILES comes first, the peptide text is derived from it. Bridges are numbered along the chain shown (N, C = ends).
# System: B6C3F1 mice, B16 melanoma ip, median survival T/C
# Assay: NCI In Vivo Anticancer Drug Screen. Data for tumor model B16 Melanoma (intraperitoneal) in B6C3F1 mice
# Conditions: endpoint: median survival time, schedule: Q01DX009 (ip), higher = longer survival
# Method in brief: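 Transplantable tumor in mice; treated vs vehicle control groups; survival or tumor size measured; value = T/C ratio.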
# [1] = dose: 12.5 mg/kg/injection, vehicle: saline with Tween-80
# [2] = dose: 25.0 mg/kg/injection, vehicle: saline with Tween-80
# [3] = dose: 50.0 mg/kg/injection, vehicle: saline with Tween-80
# [4] = dose: 100.0 mg/kg/injection, vehicle: saline with Tween-80
# [5] = dose: 25.0 mg/kg/injection, vehicle: saline
# [6] = dose: 50.0 mg/kg/injection, vehicle: saline
# [7] = dose: 100.0 mg/kg/injection, vehicle: saline
# [8] = dose: 200.0 mg/kg/injection, vehicle: saline
# [9] = dose: 6.25 mg/kg/injection, vehicle: Klucel (hydroxypropylcellulose) (HPC)
# [10] = dose: 12.5 mg/kg/injection, vehicle: Klucel (hydroxypropylcellulose) (HPC)
smiles,measurement,setting,value
CCC(C)C1NC(=O)C(CC(C)C)NC(=O)C(C(C)C)NC(=O)C2CSSCC(NC1=O)C(=O)N2 (stereo not given) (cyclo(CCVLI); disulfide 1-2; configuration not given here),T/C,"dose: 31.25 micrograms/kg/injection, vehicle: Klucel (hydroxypropylcellulose) (HPC)",105 % of control
same,T/C,"dose: 62.5 micrograms/kg/injection, vehicle: Klucel (hydroxypropylcellulose) (HPC)",105 % of control
same,T/C,"dose: 125.0 micrograms/kg/injection, vehicle: Klucel (hydroxypropylcellulose) (HPC)",96 % of control
same,T/C,"dose: 500.0 micrograms/kg/injection, vehicle: Klucel (hydroxypropylcellulose) (HPC)",94 % of control
same,T/C,"dose: 1000.0 micrograms/kg/injection, vehicle: Klucel (hydroxypropylcellulose) (HPC)",95 % of control
CC(=O)O[C@H]1C(=O)[C@@]2(C)C(C(OC(=O)c3ccccc3)[C@]3(O)CC(OC(=O)[C@H](OC(=O)CCC(=O)O)C(NC(=O)c4ccccc4)c4ccccc4)C(C)=C1C3(C)C)C1(OC(C)=O)COC1C[C@@H]2O (stereo not given in full),T/C,"dose: 1.25 mg/kg/injection, vehicle: water",111 % of control
same,T/C,"dose: 2.5 mg/kg/injection, vehicle: sodium bicarbonate",119 % of control
same,T/C,"dose: 2.5 mg/kg/injection, vehicle: water",159 % of control
same,T/C,"dose: 5.0 mg/kg/injection, vehicle: sodium bicarbonate",154 % of control
same,T/C,"dose: 5.0 mg/kg/injection, vehicle: water",166 % of control
same,T/C,"dose: 10.0 mg/kg/injection, vehicle: sodium bicarbonate",159 % of control
same,T/C,"dose: 10.0 mg/kg/injection, vehicle: water",160 % of control and 183 % of control
same,T/C,"dose: 20.0 mg/kg/injection, vehicle: sodium bicarbonate",154 % of control
same,T/C,"dose: 20.0 mg/kg/injection, vehicle: water",160 % of control and 201 % of control
same,T/C,"dose: 40.0 mg/kg/injection, vehicle: sodium bicarbonate",185 % of control
same,T/C,"dose: 40.0 mg/kg/injection, vehicle: water",177 % of control and 218 % of control
O=C1CN(Cc2ccc3c(c2)OCO3)NO1,T/C,"dose: 6.25 mg/kg/injection, vehicle: saline with Tween-80",103 % of control and 106 % of control
same,T/C,[1],109 % of control and 95 % of control
same,T/C,[2],112 % of control and 107 % of control
same,T/C,[3],115 % of control and 117 % of control
same,T/C,[4],115 % of control
OCc1c(CO)c(-c2ccc(Cl)cc2)n2c1CCC2,T/C,"dose: 25.0 mg/kg/injection, vehicle: distilled water + Tween-80",94 % of control
same,T/C,"dose: 50.0 mg/kg/injection, vehicle: distilled water + Tween-80",107 % of control
same,T/C,"dose: 100.0 mg/kg/injection, vehicle: distilled water + Tween-80",121 % of control
same,T/C,"dose: 200.0 mg/kg/injection, vehicle: distilled water + Tween-80",198 % of control
NCCc1cc(O)c(O)c(O)c1,T/C,"dose: 12.5 mg/kg/injection, vehicle: saline",106 % of control
same,T/C,[5],105 % of control
same,T/C,[6],101 % of control
same,T/C,[7],98 % of control
same,T/C,[8],106 % of control
same,T/C,"dose: 400.0 mg/kg/injection, vehicle: saline",96 % of control
O=C(O[Si](Cc1ccccc1)(Cc1ccccc1)Cc1ccccc1)N(CCCl)CCCl,T/C,"dose: 6.0 mg/kg/injection, vehicle: saline with Tween-80",103 % of control
same,T/C,[1],108 % of control
same,T/C,[2],101 % of control and 106 % of control
same,T/C,[3],113 % of control and 106 % of control
NCC(=O)NC(CC(N)=O)C(=O)O (stereo not given) (HELM PEPTIDE1{G.[NC(=O)CC(N[*:1])C(=O)O]}$$$$V2.0),T/C,[6],98 % of control
same,T/C,[7],91 % of control
same,T/C,[8],93 % of control
O=[Te]=O,T/C,"dose: 3.12 mg/kg/injection, vehicle: saline",110 % of control
same,T/C,"dose: 6.25 mg/kg/injection, vehicle: saline",109 % of control
c1ccc2sc(SSN3CC4CCC(CC4)C3)nc2c1,T/C,[1],95 % of control and 108 % of control
same,T/C,[2],93 % of control and 102 % of control
same,T/C,[3],87 % of control and 102 % of control
same,T/C,[4],97 % of control
same,T/C,"dose: 200.0 mg/kg/injection, vehicle: saline with Tween-80",87 % of control
same,T/C,"dose: 400.0 mg/kg/injection, vehicle: saline with Tween-80",88 % of control
CC(=O)OC1(C)CC(C)C(=O)C(C(O)CC2CC(=O)NC(=O)C2)C1 (stereo not given),T/C,"dose: 15.6 micrograms/kg/injection, vehicle: saline",111 % of control
same,T/C,"dose: 31.3 micrograms/kg/injection, vehicle: saline",107 % of control
same,T/C,"dose: 62.5 micrograms/kg/injection, vehicle: saline",104 % of control
same,T/C,"dose: 125.0 micrograms/kg/injection, vehicle: saline",108 % of control
same,T/C,"dose: 250.0 micrograms/kg/injection, vehicle: saline",117 % of control
O=C(O)C1CCCN1C(=O)OCc1ccccc1 (stereo not given),T/C,"dose: 50.0 mg/kg/injection, vehicle: Klucel (hydroxypropylcellulose) (HPC)",97 % of control
same,T/C,"dose: 200.0 mg/kg/injection, vehicle: Klucel (hydroxypropylcellulose) (HPC)",89 % of control
CC(C)CC1C(=O)OC(C(C)C)C(=O)N(C)C(CC(C)C)C(=O)OC(C(C)C)C(=O)N(C)C(CC(C)C)C(=O)OC(C(C)C)C(=O)N(C)C(CC(C)C)C(=O)OC(C(C)C)C(=O)N1C (stereo not given),T/C,"dose: 1.0 mg/kg/injection, vehicle: saline",97 % of control
same,T/C,"dose: 2.0 mg/kg/injection, vehicle: saline",99 % of control
same,T/C,"dose: 4.0 mg/kg/injection, vehicle: saline",104 % of control
same,T/C,"dose: 8.0 mg/kg/injection, vehicle: saline",102 % of control
same,T/C,"dose: 16.0 mg/kg/injection, vehicle: saline",101 % of control
COC(=O)[C@@]12OC[C@]34[C@H]([C@@H](O)[C@@H]1O)[C@@]1(C)CC(=O)C(O)=C(C)[C@@H]1C[C@H]3OC(=O)[C@H](OC(=O)/C=C(\C)C(C)CO)[C@@H]24 (stereo not given in full),T/C,"dose: 6.0 mg/kg/injection, vehicle: saline + alcohol",174 % of control
same,T/C,"dose: 8.0 mg/kg/injection, vehicle: saline + alcohol",161 % of control and 173 % of control
c1csc(C[N+]23CN4CN(CN(C4)C2)C3)c1,T/C,"dose: 12.0 mg/kg/injection, vehicle: saline",100 % of control
same,T/C,[5],98 % of control
same,T/C,[6],98 % of control
same,T/C,[7],104 % of control
same,T/C,[8],106 % of control
C=C1CCC2C(c3c(C)c(O)c4c(c31)C(=O)C(C)C4)C2(C)C (stereo not given),T/C,"dose: 3.13 mg/kg/injection, vehicle: Klucel (hydroxypropylcellulose) (HPC)",102 % of control
same,T/C,[9],89 % of control
same,T/C,[10],95 % of control
same,T/C,"dose: 25.0 mg/kg/injection, vehicle: Klucel (hydroxypropylcellulose) (HPC)",89 % of control
O=S(=O)(c1cccc(N=C=S)c1)c1cccc(N=C=S)c1,T/C,[9],109 % of control
same,T/C,[10],94 % of control
O=NNc1ncc(Br)cc1Br,T/C,"dose: 6.25 mg/kg/injection, vehicle: water",108 % of control
same,T/C,"dose: 12.5 mg/kg/injection, vehicle: water",114 % of control
same,T/C,"dose: 25.0 mg/kg/injection, vehicle: water",110 % of control
same,T/C,"dose: 100.0 mg/kg/injection, vehicle: water",98 % of control
